According to patent US11566007B2, “Ras inhibitors” (Revolution Medicines, Inc., priority 2019, dated 2023):
Values joined by “and” are separate entries in the source; they are usually repeats but may differ in a detail not shown here. Equal values may be shown once. Read-outs that look alike come from different tables or passages of the source.

How the values were obtained:
[1] = target: KRAS WT (Homo sapiens (Human), UniProt P01116+P62937); test: Ras-Raf (BRAF RBD) disruption / FRET / MOA assay, KRAS WT; type: biochemical; details: read-out: IC50* KRAS WT FRET data
Sequence of KRAS WT (P01116-2 other isoform, or with tags, fused parts or gaps): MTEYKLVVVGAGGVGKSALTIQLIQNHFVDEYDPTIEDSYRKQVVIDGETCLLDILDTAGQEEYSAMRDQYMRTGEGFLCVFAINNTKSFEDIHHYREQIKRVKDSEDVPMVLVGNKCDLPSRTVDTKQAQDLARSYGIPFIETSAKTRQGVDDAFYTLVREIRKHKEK
Sequence of KRAS WT (P62937 whole entry): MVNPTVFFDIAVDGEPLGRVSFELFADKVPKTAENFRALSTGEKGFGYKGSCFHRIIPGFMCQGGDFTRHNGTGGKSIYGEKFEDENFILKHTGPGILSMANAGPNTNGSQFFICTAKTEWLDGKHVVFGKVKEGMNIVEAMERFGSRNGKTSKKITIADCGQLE
Outline: (§1)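 TR-FRET read-out: a drop in ratio relative to DMSO wells marks disruption of the Ras:RAF complex, reported as IC50. Compounds (3-fold series, 10 points, top 30 μM final) incubated 3 h at 25° C before Eu-anti-His 10 nM and APC-anti-GST 50 nM, 1.5 h more.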

[2] = target: KRAS G12S (Homo sapiens (Human), UniProt P01116+P62937, G12S); test: Ras-Raf (BRAF RBD) disruption / FRET / MOA assay, KRAS G12S; type: biochemical; details: Ras-Raf disruption/FRET/MOA assay; class symbols; read-out: KRAS G12S FRET data IC50
Sequence of KRAS G12S (P01116-2 other isoform, or with tags, fused parts or gaps G12S): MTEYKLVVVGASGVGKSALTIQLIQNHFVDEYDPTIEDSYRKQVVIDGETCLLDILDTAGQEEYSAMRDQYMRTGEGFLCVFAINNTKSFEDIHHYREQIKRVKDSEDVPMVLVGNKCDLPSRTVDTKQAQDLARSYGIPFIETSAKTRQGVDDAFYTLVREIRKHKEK
Sequence of KRAS G12S (P62937 whole entry): as the sequence (P62937 whole entry) above
Outline: as §1

[3] = tested on: NCI-H358 (K-Ras G12C); test: CellTiter-Glo cell viability assay, NCI-H358; type: cell-based, human; details: Homo sapiens, NCI-H358, 120 h, NCI-H358, 5-day treatment; class symbols; read-out: Additional H358 Cell Viability assay data (K-Ras G12C, IC50)
Outline: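 Steps: compound dispensed into wells holding cells; incubation to day 5; ~30 min room-temperature equilibration; luminescence read; sample signal divided by mean DMSO signal, times 100; four-parameter logistic curve fit.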

[4] = target: KRAS G12V (Homo sapiens (Human), UniProt P01116+P62937, G12V); test: Ras-Raf (BRAF RBD) disruption / FRET / MOA assay, KRAS G12V; type: biochemical; details: read-out: IC50* KRAS G12V FRET data
Sequence of KRAS G12V (P01116-2 other isoform, or with tags, fused parts or gaps G12V): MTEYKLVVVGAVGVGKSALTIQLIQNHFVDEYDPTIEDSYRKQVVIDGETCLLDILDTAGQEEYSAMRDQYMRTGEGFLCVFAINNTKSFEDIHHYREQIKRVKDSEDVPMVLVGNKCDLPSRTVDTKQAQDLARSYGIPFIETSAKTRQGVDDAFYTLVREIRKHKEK
Sequence of KRAS G12V (P62937 whole entry): as the sequence (P62937 whole entry) above
Outline: as §1

[5] = target: K-Ras G12C (Homo sapiens (Human), UniProt P01116+P62937, G12C); test: Ras-Raf (BRAF RBD) disruption / FRET / MOA assay, KRAS G12C; type: biochemical; details: KRAS G12C; Ras-Raf disruption/FRET/MOA assay; read-out: IC50* KRAS G12C FRET data
Sequence of K-Ras G12C (P01116-2 other isoform, or with tags, fused parts or gaps G12C): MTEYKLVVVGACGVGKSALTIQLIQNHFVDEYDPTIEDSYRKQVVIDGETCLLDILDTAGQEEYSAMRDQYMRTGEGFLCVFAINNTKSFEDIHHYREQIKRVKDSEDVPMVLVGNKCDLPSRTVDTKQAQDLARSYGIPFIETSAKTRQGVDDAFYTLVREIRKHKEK
Sequence of K-Ras G12C (P62937 whole entry): as the sequence (P62937 whole entry) above
Outline: as §1

[6] = target: KRAS G13D (Homo sapiens (Human), UniProt P01116+P62937, G13D); test: Ras-Raf (BRAF RBD) disruption / FRET / MOA assay, KRAS G13D; type: biochemical; details: read-out: IC50* KRAS G13D FRET data
Sequence of KRAS G13D (P01116-2 other isoform, or with tags, fused parts or gaps G13D): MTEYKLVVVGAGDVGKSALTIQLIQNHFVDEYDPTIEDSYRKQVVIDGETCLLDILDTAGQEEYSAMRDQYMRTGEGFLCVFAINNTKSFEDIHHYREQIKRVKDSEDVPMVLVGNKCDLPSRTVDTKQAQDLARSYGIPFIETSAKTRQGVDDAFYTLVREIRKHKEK
Sequence of KRAS G13D (P62937 whole entry, canonical isoform): as the sequence (P62937 whole entry) above
Procedure: The purpose of this biochemical assay is to measure the ability of test compounds to facilitate ternary complex formation between a nucleotide-loaded Ras isoform and cyclophilin A; the resulting ternary complex disrupts binding to a BRAF^RBD construct, inhibiting Ras signaling through a RAF effector.
(§2) Compound is present in plate wells as a 10-point 3-fold dilution series starting at a final concentration of 30 μM. After incubation at 25° C. for 3 hours, a mixture of Anti-His Eu-W1024 and anti-GST allophycocyanin is then added to assay sample wells at final concentrations of 10 nM and 50 nM, respectively, and the reaction incubated for an additional 1.5 hours. […] Compounds that facilitate disruption of a Ras:RAF complex are identified as those eliciting a decrease in the TR-FRET ratio relative to DMSO control wells.
This protocol may also be executed substituting other Ras proteins or nucleotides.
The purpose of this biochemical assay was to measure the ability of test compounds to facilitate ternary complex formation between a nucleotide-loaded K-Ras isoform and Cyclophilin A; the resulting ternary complex disrupts binding to a BRAF^RBD construct, inhibiting K-Ras signaling through a RAF effector. Data is reported as IC50 values.
as §2, with “Compound was” for “Compound is”, “allophycocyanin was” for “allophycocyanin is”, “a K-Ras:RAF” for “a Ras:RAF”, “complex were” for “complex are”

[7] = target: NRAS G12C (Homo sapiens (Human), UniProt P01111+P62937, G12C); test: Ras-Raf (BRAF RBD) disruption / FRET / MOA assay, NRAS G12C; type: biochemical; details: read-out: IC50* NRAS G12C FRET data
Sequence of NRAS G12C (P01111 whole entry G12C): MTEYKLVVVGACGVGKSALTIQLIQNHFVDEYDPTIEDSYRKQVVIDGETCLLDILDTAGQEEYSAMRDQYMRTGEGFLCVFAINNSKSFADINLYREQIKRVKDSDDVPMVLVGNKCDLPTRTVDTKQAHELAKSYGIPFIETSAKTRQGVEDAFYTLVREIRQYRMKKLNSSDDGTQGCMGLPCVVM
Sequence of NRAS G12C (P62937 whole entry): as the sequence (P62937 whole entry) above
Outline: as §1

[8] = target: KRAS G12D (Homo sapiens (Human), UniProt P01116+P62937, G12D); test: Ras-Raf (BRAF RBD) disruption / FRET / MOA assay, KRAS G12D; type: biochemical; details: Ras-Raf disruption/FRET/MOA assay; class symbols; read-out: KRAS G12D FRET data IC50
Sequence of KRAS G12D (P01116-2 other isoform, or with tags, fused parts or gaps G12D): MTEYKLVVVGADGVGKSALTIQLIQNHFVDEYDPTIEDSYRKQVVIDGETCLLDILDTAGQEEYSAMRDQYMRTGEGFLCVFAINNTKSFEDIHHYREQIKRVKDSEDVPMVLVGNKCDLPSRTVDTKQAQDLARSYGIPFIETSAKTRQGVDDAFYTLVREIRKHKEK
Sequence of KRAS G12D (P62937 whole entry): as the sequence (P62937 whole entry) above
Outline: as §1

[9] = target: K-Ras G13C (Homo sapiens (Human), UniProt P01116+P62937, G13C); test: Ras-Raf (BRAF RBD) disruption / FRET / MOA assay, KRAS G13C; type: biochemical; details: KRAS G13C; Ras-Raf disruption/FRET/MOA assay; read-out: IC50* KRAS G13C FRET data
Sequence of K-Ras G13C (P01116-2 other isoform, or with tags, fused parts or gaps G13C): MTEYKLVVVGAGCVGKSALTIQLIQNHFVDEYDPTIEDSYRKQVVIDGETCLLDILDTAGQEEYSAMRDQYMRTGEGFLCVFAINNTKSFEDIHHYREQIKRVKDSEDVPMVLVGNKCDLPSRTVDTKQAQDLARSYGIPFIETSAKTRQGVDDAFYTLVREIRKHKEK
Sequence of K-Ras G13C (P62937 whole entry): as the sequence (P62937 whole entry) above
Outline: as §1

[10] = tested on: NCI-H358 cells (K-Ras G12C); test: Potency assay: pERK in NCI-H358 cells; type: cell-based, human; details: H358 KRAS G12C, read-out: pERK EC50
Outline: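 Inhibition of cellular pERK after a 4 h treatment, detected by AlphaLISA or In-Cell Western. IC50 from a four-parameter concentration-response fit.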

Row | SMILES | IC50 [1] | IC50 [2] | IC50 [3] [nM] | IC50 [4] | IC50 [5] | IC50 [6] | IC50 [7] | IC50 [8] | IC50 [9] | EC50 ([10]; Homo sapiens, NCI-H358) [nM] | EC50 [10] [nM]
1 | C=CC(=O)N1CC[C@H](C(=O)N(C)[C@H](C(=O)N[C@H]2Cc3cccc(c3)-c3ccc4c(c3)c(c(-c3ccccc3[C@H](C)OC)n4CC)CC(C)(C)COC(=O)[C@@H]3CCCN(N3)C2=O)C(C)C)C1 (atropisomer, axis not shown) [Example A114] | > 10000 nM | > 10000 nM | 100 to 1000 | > 10000 nM | > 10000 nM | > 10000 nM | > 10000 nM | > 10000 nM | > 10000 nM | – | –
2 | C=CC(=O)N1CC[C@H](C(=O)N(C)[C@H](C(=O)N[C@H]2Cc3cccc(c3)-c3ccc4c(c3)c(c(-c3cc(C5CCN(C)CC5)cnc3[C@H](C)OC)n4CC)CC(C)(C)COC(=O)[C@@H]3CCCN(N3)C2=O)C(C)C)C1 (atropisomer, axis not shown) [Example A515] | 1000 to 10000 nM | 100 to 1000 nM | – | 1000 to 10000 nM | 10 to 100 nM | 1000 to 10000 nM | 10 to 100 nM | 1000 to 10000 nM | 100 to 1000 nM | < 5000 | –
3 | C=CC(=O)N1CC[C@H](C(=O)N(C)[C@H](C(=O)N[C@H]2Cc3nc(cs3)-c3ccc4c(c3)c(c(-c3cc(C5=CCN(C)CC5)cnc3[C@H](C)OC)n4CC)CC(C)(C)COC(=O)[C@@H]3CCCN(N3)C2=O)C(C)C)C1 (atropisomer, axis not shown) [Example A520] | 1000 to 10000 nM | 1000 to 10000 nM | – | 1000 to 10000 nM | 100 to 1000 nM | 1000 to 10000 nM | 100 to 1000 nM | 1000 to 10000 nM | 1000 to 10000 nM | – | < 5000
4 | C=CC(=O)Nc1cnc(C(=O)N(C)[C@H](C(=O)N[C@H]2Cc3cccc(c3)-c3ccc4c(c3)c(c(-c3cccnc3[C@H](C)OC)n4CC)CC(C)(C)COC(=O)[C@@H]3CCCN(N3)C2=O)C(C)C)n1C (atropisomer, axis not shown) [Example A525] | 1000 to 10000 nM | 1000 to 10000 nM | – | 1000 to 10000 nM | 10 to 100 nM | 1000 to 10000 nM | 10 to 100 nM | 1000 to 10000 nM | 10 to 100 nM | – | < 5000
5 | CCn1c(-c2cnccc2COC)c2c3cc(ccc31)-c1ccnc(c1)C[C@H](NC(=O)[C@H](C(C)C)N(C)C(=O)[C@H]1CCN(C(=O)C#CCN(C)C)C1)C(=O)N1CCC[C@H](N1)C(=O)OCC(C)(C)C2 [Example A130] | > 10000 nM | > 10000 nM | – | > 10000 nM | < 10 nM | 1000 to 10000 nM | < 10 nM | 1000 to 10000 nM | 100 to 1000 nM | < 5000 | –
6 | CCn1c(-c2cncnc2)c2c3cc(ccc31)-c1cccc(c1)C[C@H](NC(=O)[C@H](C(C)C)N(C)C(=O)[C@H]1CCN(C(=O)C#CCN(C)C)C1)C(=O)N1CCC[C@H](N1)C(=O)OCC(C)(C)C2 [Example A144] | > 10000 nM | > 10000 nM | – | > 10000 nM | 10 to 100 nM and 100 to 1000 nM | 1000 to 10000 nM | 10 to 100 nM and 100 to 1000 nM | 1000 to 10000 nM | 1000 to 10000 nM | < 5000 | –
7 | CCn1c(-c2cccnc2COC)c2c3cc(ccc31)-c1cc(O)cc(c1)C[C@H](NC(=O)[C@H](C(C)C)N(C)C(=O)[C@H]1CCN(C(=O)C#C[C@@H]3CCCN3C)C1)C(=O)N1CCC[C@H](N1)C(=O)OCC(C)(C)C2 [Example A196] | 1000 to 10000 nM and > 10000 nM | 100 to 1000 nM and > 10000 nM | – | 100 to 1000 nM and > 10000 nM | 10 to 100 nM and < 10 nM | 100 to 1000 nM and > 10000 nM | 10 to 100 nM and < 10 nM | 1000 to 10000 nM and > 10000 nM | 10 to 100 nM and 100 to 1000 nM | < 5000 | –
8 | CCn1c(-c2cccnc2COC)c2c3cc(ccc31)-c1cc(O)cc(c1)C[C@H](NC(=O)[C@H](C(C)C)N(C)C(=O)[C@H]1CCN(C(=O)C#CCN3[C@@H](C)COC[C@@H]3C)C1)C(=O)N1CCC[C@H](N1)C(=O)OCC(C)(C)C2 [Example A209] | 1000 to 10000 nM and > 10000 nM | 1000 to 10000 nM and > 10000 nM | – | 100 to 1000 nM and > 10000 nM | 10 to 100 nM and < 10 nM | 1000 to 10000 nM and > 10000 nM | 100 to 1000 nM and < 10 nM | > 10000 nM | 100 to 1000 nM and > 10000 nM | < 5000 | –
9 | C=CC(=O)C1C[C@@H](C(=O)N(C)[C@H](C(=O)N[C@H]2Cc3cc(O)cc(c3)-c3ccc4c(c3)c(c(-c3ccc5c(c3)CN(C)C5)n4CC)CC(C)(C)COC(=O)[C@@H]3CCCN(N3)C2=O)C(C)C)CN1 (stereo partly drawn) [Example A212] | 1000 to 10000 nM and > 10000 nM | 1000 to 10000 nM and > 10000 nM | – | 1000 to 10000 nM and > 10000 nM | 100 to 1000 nM and 1000 to 10000 nM | 1000 to 10000 nM and > 10000 nM | 100 to 1000 nM and 1000 to 10000 nM | > 10000 nM | 1000 to 10000 nM and > 10000 nM | < 5000 | –
10 | C=CC(=O)C1C[C@@H](C(=O)N(C)[C@H](C(=O)N[C@H]2Cc3cc(O)cc(c3)-c3ccc4c(c3)c(c(-c3ccccc3CCOC)n4CC)CC(C)(C)COC(=O)[C@@H]3CCCN(N3)C2=O)C(C)C)[C@@H](OC)N1 (stereo partly drawn) [Example A214] | 1000 to 10000 nM | 1 µM to 10 µM (2×) and > 10 µM (2×) | – | > 10000 nM | 10 nM to 100 nM (2×) and 1 µM to 10 µM (2×) | > 10000 nM | 100 nM to 1 µM and > 10 µM (2×) | > 10000 nM | 1 µM to 10 µM (3×) and > 10 µM | < 5000 | –
11 | CCn1c(-c2ccccc2CCOC)c2c3cc(ccc31)-c1cc(O)cc(c1)C[C@H](NC(=O)[C@H](C(C)C)N(C)C(=O)c1ccc(NC(=O)/C=C/CN(C)C)cc1)C(=O)N1CCC[C@H](N1)C(=O)OCC(C)(C)C2 [Example A225] | 1000 to 10000 nM | 1 µM to 10 µM (2×) and > 10 µM (2×) | – | > 10000 nM | 10 nM to 100 nM (2×) and 1 µM to 10 µM (2×) | > 10000 nM | 100 nM to 1 µM and > 10 µM (2×) | > 10000 nM | 1 µM to 10 µM (3×) and > 10 µM | < 5000 | –
12 | CCn1c(-c2cccnc2COC)c2c3cc(ccc31)-c1cc(O)cc(c1)C[C@H](NC(=O)[C@H](C(C)C)N(C)C(=O)[C@H]1CCN(C(=O)C#CC3(N(C)C)COC3)C1)C(=O)N1CCC[C@H](N1)C(=O)OCC(C)(C)C2 [Example A241] | 1000 to 10000 nM | 100 to 1000 nM and 1000 to 10000 nM | – | 100 to 1000 nM and 1000 to 10000 nM | 10 to 100 nM | 1000 to 10000 nM | 10 to 100 nM | 1000 to 10000 nM and > 10000 nM | 100 to 1000 nM | < 5000 | –
13 | CO[C@@H](C)c1ncccc1-c1c2c3cc(ccc3n1CC(F)(F)F)-c1nnc(o1)C[C@H](NC(=O)[C@H](C(C)C)N(C)C(=O)[C@H]1CCN(C(=O)C#CC(C)(C)N3CCC3)C1)C(=O)N1CCC[C@H](N1)C(=O)OCC(C)(C)C2 [Example A423] | 1000 to 10000 nM | 1000 to 10000 nM | – | 1000 to 10000 nM | 10 to 100 nM | > 10000 nM | 10 to 100 nM | > 10000 nM | 100 to 1000 nM | < 5000 | –
